We go through 15 compounds from PubChem BioAssay AID588827 (Broad Institute, 2011).

Results filed as inconclusive are left out.

As usually defined, the AC50 is the concentration giving half of the maximal activity seen.

The subject of this assay is NIH3T3 R4 HSF-1 GFP reporter, heat shock, 48 h. Briefly: decrease of heat-induced HSF-1 GFP reporter, dose response, NIH3T3 R4 cells, GFP/RFP, cherry-pick, set 4 (AID 588827).
Take `COc1ccccc1-c1cc(C(F)(F)F)nc(S(=O)(=O)CCCC(=O)NCc2ccc(F)cc2)n1`: the AC50 was 5.26 µM.
The figure for `CCOC(=O)Cc1nnc2c(Nc3ccccc3F)nc3nonc3n12` is 7.38 µM.
The value for `C(=N\NC1=Nc2cccc3cccc1c23)/c1ccccn1` was 19.2 µM; that for `CCOC(=O)c1c(C)[nH]c2c1-c1ccccc1C(=O)C2=O` was 1.23 µM; that for `O=C(CCl)N(c1ccccc1)C1CCCCC1` was 5.18 µM.
The figure for `O=C(CCl)Nc1cn(-c2ccccc2)nc1-c1ccc(F)cc1` is 5.2 µM; for `C=C(C)C(=O)O[C@H]1C/C(C)=C\C(=O)/C=C(\C)[C@H](O)[C@@H]2OC(=O)C(=C)[C@@H]21` it is 12.9 µM.
For `Cn1c(=O)c([N+](=O)[O-])c(Cl)c2ccccc21`, the concentration at half-maximal activity (AC50) was 14.2 µM.
The value for `CC12CCC(C/C1=N\N=C1\NC(=O)/C(=C\c3ccc(Cl)cc3)S1)C2(C)C` (stereo not given) was 2.11 µM; that for `O=S(=O)(c1ccc2c(c1)C(=NO)c1cc(S(=O)(=O)N3CCCCC3)ccc1-2)N1CCCCC1` was 2.49 µM.
The value for `COc1ccc(C[C@H]2NC[C@H](O)[C@H]2OC(C)=O)cc1` was 0.361 µM; that for `CC(C)(C)c1ccc2c(c1)OC(C(=O)N/N=C\c1ccc[nH]1)CO2` (stereo not given) was 0.515 µM.
For the compound `CCc1ccc(C2=NNC(=Nc3cccc(S(=O)(=O)N(C)C)c3)SC2)cc1`, the concentration at half-maximal activity (AC50) was 15.7 µM.
The value for `Cc1ccc(NC2=C/C(=N\S(=O)(=O)c3cccs3)c3ccccc3C2=O)c(C)c1` was 1.42 µM; that for `Cc1cc([N+](=O)[O-])c2ccccc2[n+]1[O-]` was 11 µM.
